Experimental findings from patent US11052092B2, “N-{[2-(piperidin-1-yl)phenyl](phenyl)methyl}-2-(3-oxo-3,4-dihydro-2H-1,4-benzoxazin-7-yl)acetamide derivatives and related compounds as ROR-gamma modulators for treating autoimmune diseases” (Genfit, priority 2017, dated 2021) are described below.

By melting point is commonly meant the temperature of the solid-liquid transition.

SMILES strings stand for the structures. Counter-ions that a name gives are not always drawn.

`Cc1ccc(C(NC(=O)C2(c3ccc4c(c3)OCS(=O)(=O)N4)CC2)c2ccc(Cl)o2)c(C)c1` (centres unmarked) (as salt: HCl) [Cpd. 149, N-[(5-chlorofuran-2-yl)(2,4-dimethylphenyl)methyl]-1-(2,2-dioxo-1,3-dihydro-4,2,1-benzoxathiazin-6-yl)cyclopropane-1-carboxamide] returned a melting point of 102 °C.

The compound `Cc1cnc(C(NC(=O)C2(c3ccc4c(c3)OCS(=O)(=O)N4)CC2)c2ccc(C)o2)c(C)c1` (centres unmarked) (as salt: HCl) [Cpd. 153, N-[(3,5-dimethylpyridin-2-yl)(5-methylfuran-2-yl)methyl]-1-(2,2-dioxo-1,3-dihydro-4,2,1-benzoxathiazin-6-yl)cyclopropane-1-carboxamide] gave a melting point of 189 °C. For the compound `Cc1ccc(C(NC(=O)C2(c3ccc4c(c3)OCC(=O)N4)CC2)c2ccc(C)o2)c(N(C)C)c1` (centres unmarked) (as salt: HCl) [Cpd. 156, N-{[2-(dimethylamino)-4-methylphenyl](5-methylfuran-2-yl)methyl}-1-(3-oxo-3,4-dihydro-2H-1,4-benzoxazin-7-yl)cyclopropane-1-carboxamide], the melting point came out at 99 °C.

Regarding `Cc1ccc(C(NC(=O)C2(c3ccc4c(c3)CS(=O)(=O)N4CC3CCOCC3)CC2)c2ccc(C)o2)c(C)c1` (centres unmarked) (as salt: HCl) [Cpd. 157, N-[(2,4-dimethylphenyl)(5-methylfuran-2-yl)methyl]-1-[1-(oxan-4-ylmethyl)-2,2-dioxo-1,3-dihydro-2,1-benzothiazol-5-yl]cyclopropane-1-carboxamide], the melting point was determined as 76 °C.

Compound `Cc1ccc(C(NC(=O)C2(c3cc(F)c4c(c3)CC(=O)N4)CC2)c2ccc(C)o2)c(C)c1` (centres unmarked) (as salt: HCl) [Cpd. 158, N-[(2,4-dimethylphenyl)(5-methylfuran-2-yl)methyl]-1-(7-fluoro-2-oxo-2,3-dihydro-1H-indol-5-yl)cyclopropane-1-carboxamide] displayed a melting point of 102 °C. To `Cc1ccc(C(NC(=O)C2(c3ccc4c(c3)C(F)(F)C(=O)N4)CC2)c2ccc(C)o2)c(C)c1` (centres unmarked) (as salt: HCl) [Cpd. 159, 1-(3,3-difluoro-2-oxo-2,3-dihydro-1H-indol-5-yl)-N-[(2,4-dimethylphenyl)(5-methylfuran-2-yl)methyl]cyclopropane-1-carboxamide] belongs 177 °C. With `Cc1ccc(C(NC(=O)C2(c3ccc4c(c3)CS(=O)(=O)N4C)CC2)c2ccc(Cl)o2)c(C)c1` (centres unmarked) (as salt: HCl) [Cpd. 160, N-[(5-chlorofuran-2-yl)(2,4-dimethylphenyl)methyl]-1-(1-methyl-2,2-dioxo-1,3-dihydro-2,1-benzothiazol-5-yl)cyclopropane-1-carboxamide] the figure was 70 °C. `Cc1ccc(C(NC(=O)C2(c3ccc4c(c3)OCO4)CC2)c2ccc(C)o2)c(Br)c1` (centres unmarked) (as salt: HCl) [Cpd. 161, 1-(2H-1,3-benzodioxol-5-yl)-N-[(2-bromo-4-methylphenyl)(5-methylfuran-2-yl)methyl]cyclopropane-1-carboxamide] registered a melting point of 55 °C. In turn, `Cc1ccc(C(NC(=O)C2(c3ccc4c(c3)CS(=O)(=O)N4CC3CCOCC3)CC2)c2ccc(C)o2)c(N2CCCCC2)c1` (centres unmarked) (as salt: HCl) [Cpd. 162, N-{[4-methyl-2-(piperidin-1-yl)phenyl](5-methylfuran-2-yl)methyl}-1-[1-(oxan-4-ylmethyl)-2,2-dioxo-1,3-dihydro-2,1-benzothiazol-5-yl]cyclopropane-1-carboxamide] gave a melting point of 87 °C. With `Cc1ccc(C(NC(=O)C2(c3ccc4c(c3)CS(=O)(=O)N4CC3CCOCC3)CC2)c2ccc(C)o2)c(Br)c1` (centres unmarked) (as salt: HCl) [Cpd. 163, N-[(2-bromo-4-methylphenyl)(5-methylfuran-2-yl)methyl]-1-[1-(oxan-4-ylmethyl)-2,2-dioxo-1,3-dihydro-2,1-benzothiazol-5-yl]cyclopropane-1-carboxamide] the figure was 85 °C; with `Cc1ccc(C(NC(=O)C2(c3ccc4c(c3)OCO4)CC2)c2ccc(C)o2)c(N2CCCCC2)c1` (centres unmarked) (as salt: HCl) [Cpd. 164, 1-(2H-1,3-benzodioxol-5-yl)-N-{[4-methyl-2-(piperidin-1-yl)phenyl](5-methylfuran-2-yl)methyl}cyclopropane-1-carboxamide], 51 °C. With `Cc1ccc(C(NC(=O)C2(c3ccc4c(c3)CCC4=NO)CC2)c2ccc(C)o2)c(C)c1` (centres unmarked) (as salt: HCl) [Cpd. 165, N-[(2,4-dimethylphenyl)(5-methylfuran-2-yl)methyl]-1-[1-(hydroxyimino)-2,3-dihydro-1H-inden-5-yl]cyclopropane-1-carboxamide] the figure was 68 °C; with `Cc1ccc(C(NC(=O)Cc2ccc3c(c2)CS(=O)(=O)N3CC2CCOCC2)c2ccc(C)o2)c(C)c1` (centres unmarked) (as salt: HCl) [Cpd. 166, N-[(2,4-dimethylphenyl)(5-methylfuran-2-yl)methyl]-2-[1-(oxan-4-ylmethyl)-2,2-dioxo-1,3-dihydro-2,1-benzothiazol-5-yl]acetamide], 83 °C. In turn, `Cc1ccc(C(NC(=O)Cc2ccc3c(c2)CS(=O)(=O)N3CC2CCOCC2)c2ccc(C)o2)c(N2CCCCC2)c1` (centres unmarked) (as salt: HCl) [Cpd. 167, N-{[4-methyl-2-(piperidin-1-yl)phenyl](5-methylfuran-2-yl)methyl}-2-[1-(oxan-4-ylmethyl)-2,2-dioxo-1,3-dihydro-2,1-benzothiazol-5-yl]acetamide] returned a melting point of 85 °C. With `Cc1ccc(C(NC(=O)C2(c3ccc4c(c3)OCS(=O)(=O)N4C)CC2)c2ccc(C)o2)c(C)c1` (centres unmarked) (as salt: HCl) [Cpd. 172, N-[(2,4-dimethylphenyl)(5-methylfuran-2-yl)methyl]-1-(1-methyl-2,2-dioxo-1,3-dihydro-4,2,1-benzoxathiazin-6-yl)cyclopropane-1-carboxamide] the figure was 65 °C; with `Cc1ccc(C(NC(=O)C2(c3ccc4c(c3)OCS(=O)(=O)N4C)CC2)c2ccc(C)o2)c(Br)c1` (centres unmarked) (as salt: HCl) [Cpd. 173, N-[(2-bromo-4-methylphenyl)(5-methylfuran-2-yl)methyl]-1-(1-methyl-2,2-dioxo-1,3-dihydro-4,2,1-benzoxathiazin-6-yl)cyclopropane-1-carboxamide], 71 °C; with `Cc1ccc(C(NC(=O)Cc2ccc3c(ccn3S(C)(=O)=O)c2)c2ccc(C)o2)c(N2CCCCC2)c1` (centres unmarked) (as salt: ammonium) [Cpd. 106, 2-(1-methanesulfonyl-1H-indol-5-yl)-N-{[4-methyl-2-(piperidin-1-yl)phenyl](5-methylfuran-2-yl)methyl}acetamide], 83 °C. In the case of `CCSc1nc2cc(CC(=O)NC(c3ccccc3)c3ccc(C)cc3Br)ccc2[nH]1` (centres unmarked) (as salt: hydrochloride) [Cpd. 92, N-[(2-bromo-4-methylphenyl)(phenyl)methyl]-2-[2-(ethylsulfanyl)-1H-1,3-benzodiazol-5-yl]acetamide], the melting point turned out to be 103 °C.

`Cc1ccc(C(NC(=O)Cc2ccc3c(c2)C(=O)C(=O)N3C)c2ccc(C)o2)c(N2CCCCC2)c1` (centres unmarked) (as salt: sodium) [Cpd. 45, 2-(1-methyl-2,3-dioxo-2,3-dihydro-1H-indol-5-yl)-N-{[4-methyl-2-(piperidin-1-yl)phenyl](5-methylfuran-2-yl)methyl}acetamide] displayed a melting point of 99 °C. With `Cc1ccc(C(NC(=O)Cc2ccc3c(c2)C(O)C(=O)N3)c2ccc(C)o2)c(N2CCCCC2)c1` (centres unmarked) (as salt: sodium) [Cpd. 46, 2-(3-hydroxy-2-oxo-2,3-dihydro-1H-indol-5-yl)-N-{[4-methyl-2-(piperidin-1-yl)phenyl](5-methylfuran-2-yl)methyl}acetamide] the figure was 110 °C. To `Cc1ccc(C(NC(=O)Cc2ccc3c(c2)CCC3O)c2ccc(C)o2)c(N2CCCCC2)c1` (centres unmarked) (as salt: sodium) [Cpd. 52, 2-(1-hydroxy-2,3-dihydro-1H-inden-5-yl)-N-{[4-methyl-2-(piperidin-1-yl)phenyl](5-methylfuran-2-yl)methyl}acetamide] belongs 97 °C; to `Cc1ccc(C(NC(=O)Cc2ccc3c(c2)C(O)CC3)c2ccc(C)o2)c(N2CCCCC2)c1` (centres unmarked) (as salt: sodium) [Cpd. 85, 2-(3-hydroxy-2,3-dihydro-1H-inden-5-yl)-N-{[4-methyl-2-(piperidin-1-yl)phenyl](5-methylfuran-2-yl)methyl}acetamide], 60 °C; to `Cc1ccc(C(NC(=O)Cc2ccc3c(ccn3CC3CCOCC3)c2)c2ccc(C)o2)c(N2CCCCC2)c1` (centres unmarked) (as salt: sodium) [Cpd. 113, N-{[4-methyl-2-(piperidin-1-yl)phenyl](5-methylfuran-2-yl)methyl}-2-[1-(oxan-4-ylmethyl)-1H-indol-5-yl]acetamide], 67 °C. As to `Cc1ccc(C(NC(=O)C2(c3ccc4c(ccn4CCC(=O)O)c3)CC2)c2ccc(C)o2)c(N2CCCCC2)c1` (centres unmarked) (as salt: sodium) [Cpd. 154, 3-{5-[1-({[4-methyl-2-(piperidin-1-yl)phenyl](5-methylfuran-2-yl)methyl}carbamoyl)cyclopropyl]-1H-indol-1-yl}propanoic acid], the melting point was 90 °C. Turning to `Cc1ccc(C(NC(=O)C2(c3ccc4c(c3)CCC4O)CC2)c2ccc(C)o2)c(C)c1` (centres unmarked) (as salt: sodium) [Cpd. 155, N-[(2,4-dimethylphenyl)(5-methylfuran-2-yl)methyl]-1-(1-hydroxy-2,3-dihydro-1H-inden-5-yl)cyclopropane-1-carboxamide], the melting point was determined as 58 °C. Consider `Cc1ccc(C(NC(=O)Cc2ccc3c(c2)/C(=N/N)C(=O)N3)c2ccc(C)o2)c(N2CCCCC2)c1` (centres unmarked) (hydrate or solvate) [Cpd. 84, 2-[(3Z)-3-hydrazinylidene-2-oxo-2,3-dihydro-1H-indol-5-yl]-N-{[4-methyl-2-(piperidin-1-yl)phenyl](5-methylfuran-2-yl)methyl}acetamide], for which the melting point worked out at 130 °C.
